This is an account of results in patent publication EP3505512B1, “QUATERNARY NICOTINAMIDE DERVIATIVES AS PRECURSORS FOR RELEASE OF MNA” (UNIWERSYTET JAGIELLONSKI, priority 2017, dated 2019).

Series [1] can be described thus: esterase dependent hydrolysis: incubation in fresh rat plasma, LC-MS/MS determination of parent compound, MNAF and MNA. As to conditions: for release of intermediate compound MNAF / rate of hydrolysis (property depending on structure): group property, matrix not given; for hydrolysis of parent compound during plasma incubation: fresh rat plasma, 37°C, incubation 120 min.

A short description of series [2]: hydrolytic stability in solution: incubation in PBS buffer, LC-MS/MS determination of parent compound, MNAF and MNA. It is filed as physicochemical. As to conditions: 37°C, incubation 120 min.
Experimental: The invention also concerns the method of releasing N1-methylnicotinamide (MNA), which is characterized by the following steps: pyridine salts derivatives, as defined above, are incubated in a shaking water bath at 37°C for 120 minutes, then samples are taken 1, 5, 15, 30, 60, 90 and 120 minutes after the start of incubation, by taking 50 µL of a sample to which 500 µL of acetonitrile cooled to -20°C was added to interrupt the hydrolysis reaction, then samples were cooled for 20 minutes at 4°C for protein precipitation, and then centrifuged under the following conditions: 4°C, 15,000 x rpm, 15 min, and the supernatant was transferred to separate chromatographic tubes and 5 µL was applied to the chromatographic column. Preferably, when MNA release is studied in PBS buffer - testing hydrolytic stability in solution and/or in rat plasma - additionally testing plasma esterase-dependent hydrolysis.
For that purpose, the studied compounds were incubated: (1) in PBS buffer - testing hydrolytic stability in solution; (2) in rat plasma - testing additionally esterase dependent hydrolysis. Incubation was carried out in a shaking water bath at 37°C. The studied compounds were added to the prepared biological matrix and incubated for 120 min. Samples were collected 1, 5, 15, 30, 60, 90 and 120 min. after the beginning of incubation, by taking 50 µL of a sample to which 500 µL of acetonitrile cooled to -20°C was added to stop the hydrolysis reaction. The samples were cooled for 20 minutes at 4°C in order to precipitate proteins and then centrifuged under the following conditions: 4°C, 15,000 x rpm, 15 min. The supernatant was transferred to separate chromatographic tubes and 5 µL was injected onto chromatographic column.
The analytical system used for determination of MNA and MNAF concentrations consisted of the UltiMate 3000 liquid chromatograph (Dionex, Thermo Scientific) and the Quantum Ultra TSQ mass spectrometer (Thermo Scientific). For chromatographic separation the Aquasil C18 (4.6 x 150 mm, 5 µm, Thermo Scientific) analytical column was used with isocratic mobile phase, a mixture of 0.1% formic acid in acetonitrile and 5mM ammonium formate (80: 20, v/v)) elution ,at the flow rate of 0,8 mL/min. The detection was performed in the selected reaction monitoring (SRM) mode in positive ionization, monitoring the following ion transitions: m/z 137 → 94 (CE=19V) for MNA, m/z 167 → 137 (CE10) for MNAF, m/z 140 → 97 (CE=19V) for MNA-d3 used as internal standard. The parameters of the ion source were as follows: gas pressure 30 psi (sheath gas) and 10 psi (auxiliary gas), ion spray voltage 4500V, H-ESI ison sourse vaporizer temperature 300°C, capillary temperature 300°C, pressure in the collision chamber 1.5 mTorr (argon).

With “3-(Acetoxymethylcarbamoyl)-1-methylpyridinium iodide [C-2578]”, the “release of intermediate compound MNAF / rate of hydrolysis (property depending on structure)” value in series [1] is listed as “quick release of an intermediate compound MNAF”.

For the substance “3-(benzoyloxymethylcarbamoyl)-1-methylpyridinium iodide [C-2648]”, the “release of intermediate compound MNAF / rate of hydrolysis (property depending on structure)” value in series [1] is recorded as “quick release of an intermediate compound MNAF”.

On to “3-(isobutanoyloxymethylcarbamoyl)-1-methylpyridinium iodide [C-2649]”, for which the “release of intermediate compound MNAF / rate of hydrolysis (property depending on structure)” value in series [1] is given as “quick release of an intermediate compound MNAF”.

Take “3-(methoxymethylcarbamoyl)-1-methylpyridinium iodide [C-2823]”: in series [2], the “stability in PBS buffer” value was “high stability” and the “changes in concentrations of parent compound during incubation in PBS solution” value is “No changes in concentrations”. In addition, in series [1], the “hydrolysis of parent compound during plasma incubation” value is “slow and slight hydrolysis”; the “release of intermediate compound MNAF / rate of hydrolysis (property depending on structure)” value is reported as “hydrolyse very slowly”.

With “3-({[(3,4,5-trimethoxybenzoyl)oxy]methyl}carbamoyl)-1 methylpyridinium iodide [C-2942]”, the “release of intermediate compound MNAF / rate of hydrolysis (property depending on structure)” value in series [1] is “quick release of an intermediate compound MNAF”.

For the substance “3-[(2,2-dimethylpropionyl oxymethyl)carbamoyl]-1-methylpyridinium iodide [C-2647]”, in series [1], the “release of intermediate compound MNAF / rate of hydrolysis (property depending on structure)” value was “quick release of an intermediate compound MNAF”.

With “3-[(adamanthan-1-carbonyl oxymethyl)carbamoyl]-1-methylpyridinium iodide [C-2808]”, in series [2], the “stability in PBS buffer” value is “high stability” and the “changes in concentrations of parent compound during incubation in PBS solution” value is reported as “No changes in concentrations”. Also, in series [1], the “hydrolysis of parent compound during plasma incubation” value is “slow and slight hydrolysis”; the “release of intermediate compound MNAF / rate of hydrolysis (property depending on structure)” value is recorded as “hydrolyse very slowly”.

On to “iodide [(1-methylpyridine-1-ium-3-carbonyl)amino] methyl-1-methylcyclohexanecarboxylate [C-2959]”, for which, in series [1], the “release of intermediate compound MNAF / rate of hydrolysis (property depending on structure)” value is “quick release of an intermediate compound MNAF”.
